Where a name gives a salt, the structure may show the parent alone.
Test system: Proteinkinase C (PKC)
Test: Inhibition of PS/DO-mediated protein kinase C activity (32P incorporation into histone H-1)
Format: biochemical, Hühner
Description: Zur Klärung des hemmenden Einflusses der erfindungsgemäßen Verbindungen der allgemeinen Formel I auf die Calcium- und Phospholipid-abhängige Proteinkinase (PKC) wurde diese Enzymaktivität ausgehend von einem Hühnermagenextrakt angereichert. In Anlehnung an in der Literatur beschriebene Reinigungsschritte (J. Biol. Chem. 260, S. 15718-15722, 1985) wurde bei der aus 2 Schritten bestehenden Reinigung die Eigenschaft des Enzyms ausgenutzt, in Anwesenheit von Calcium an Zellmembranen zu binden und durch Calciumchelatoren (EGTA) wieder abgelöst zu werden. Beim 1. Anreicherungsschritt erfolgte die Bindung der PKC an Membranen des Hühnermagenextraktes und im 2. Schritt an sogenannte Inside/Out-Vesikel von Erythrozyten. Nach Ablösung von den Erythrozyten-Membranen und Umpufferung lag die PKC-Präparation in 10 mM HEPES, 1 mM DTT, 0,1% PEG 20000, pH 7,5 vor und konnte unter diesen Bedingungen bei -70°C für mehrere Monate ohne Aktivitätsverlust gelagert werden.
Die Aktivität des Enzyms wurde über den Einbau von Phosphor-32-markiertem Phosphat in das durch PKC phosphorylierbare Protein Histon H-1 bestimmt. Der Test enthält dabei folgende Kumponenten: 50 mM HEPES (pH 7,5), 1 mM DTT, 5 mM MgCl₂, ca. 10 µM freies Ca²⁺, 200 µg/ml Histon, 5 µg/ml Phosphatidylserin, 1 µg/ml 1,2-Diolein, 10 µM ATP, eine jeweils geeignete Menge der PKC-Präparation und gegebenenfalls eine Testsubstanz. Die unter Standardbedingungen gemessene Kinase-Aktivität in Anwesenheit von PKC-Aktivatoren (und ohne Testsubstanz) wurde jeweils als 100% gesetzt und die Hemmwirkung der Verbindungen der allgemeinen Formel I prozentual darauf bezogen.
In Tabelle I ist die Inhibierung von PS/DO [PS: Phosphatidylserin, DO: 1,2-Diolein] vermittelter Proteinkinase C-Aktivität angegeben.

Inhibierung der PS/ DO-vermittelten PKC-Aktivität (%) (konz. 1x10^-5 mol/l, 10 µM)	Inhibierung der PS/ DO-vermittelten PKC-Aktivität (%) (konz. 1x10^-6 mol/l)	Inhibierung der PS/ DO-vermittelten PKC-Aktivität (%) (konz. 1x10^-4 mol/l, 100 µM)	SMILES
69%	11%		CCCCCCCCCCCCCCCCCCOCC(N)CO (racemic) [Beispiel 6, (±)-2-Amino-3-octadecyloxy-1-propanol, reference compound]
36%			CCCCCCCCCCCCCCOCC(COC(C)=O)N(C)C (racemic) [Beispiel 1b, (±)-2-Dimethylamino-3-tetradecyloxy-1-propylacetat Oxalat]
78%	11%	100%	CCCCCCCCCCCCCCCCCCOCC(CO)N(CC)CC.O=C(O)C(=O)O (racemic) [Beispiel 2a, (±)-2-Diethylamino-3-octadecyloxy-1-propanol Oxalat]
28%			CCCCCCCCCCCCCCCCCCOCC(COC(C)=O)N(C)C (racemic) [Beispiel 1, (±)-2-Dimethylamino-3-octadecyloxy-1-propylacetat · Hydrochlorid]
90%	21%	104%	CCCCCCCCCCCCCCCCCCOCC(COC(=O)c1ccccc1)[N+](C)(C)C (racemic) [Beispiel 4, (±)-1-Benzoyloxy-3-octadecyloxy-2-propyl-trimethylammoniumjodid]
91%	23%	99%	CCCCCCCCCCCCCCCCCCOCC(CO)NCC (racemic) [Beispiel 2, (±)-2-Ethylamino-octadecyloxy-1-propanol · Hydrochlorid]
23%			CCCCCCCCCCCCCCCCOCC(COC(C)=O)N(C)C (racemic) [Beispiel 1a, (±)-2-Dimethylamino-3-hexadecyloxy-1-propylacetat Oxalat]
39%	12%		CCCCCCCCCCCCCCCCCCSCC(N)CO (racemic) [Beispiel 5, (±)-2-Amino-3-octadecylthio-1-propanol]

Reference: patent publication EP0279458A1, “2-Propyl amine derivatives, processes for their preparation and their use” (GÖDECKE AKTIENGESELLSCHAFT, priority 1987, dated 1988)
